In article PMC9851200, “Multiparameter phenotypic screening for endogenous TFEB and TFE3 translocation identifies novel chemical series modulating lysosome function” (Autophagy, 2022):
Like-named read-outs stand apart in the source and are kept apart here.

Experiments:
Assay type in all cases: binding
[1] = target: kinases (KINOMEscan panel) (Homo sapiens, UniProt Q9Y3S1); settings: WNK2; NEW KINOMEscan
[2] = target: kinases (KINOMEscan panel) (Homo sapiens, UniProt Q9NYY3); settings: PLK2; NEW KINOMEscan
[3] = target: T1, kinases (KINOMEscan panel) (Homo sapiens, UniProt Q6PHR2); settings: kinase ULK3; NEW KINOMEscan
T1 sequence (Q6PHR2 1-472): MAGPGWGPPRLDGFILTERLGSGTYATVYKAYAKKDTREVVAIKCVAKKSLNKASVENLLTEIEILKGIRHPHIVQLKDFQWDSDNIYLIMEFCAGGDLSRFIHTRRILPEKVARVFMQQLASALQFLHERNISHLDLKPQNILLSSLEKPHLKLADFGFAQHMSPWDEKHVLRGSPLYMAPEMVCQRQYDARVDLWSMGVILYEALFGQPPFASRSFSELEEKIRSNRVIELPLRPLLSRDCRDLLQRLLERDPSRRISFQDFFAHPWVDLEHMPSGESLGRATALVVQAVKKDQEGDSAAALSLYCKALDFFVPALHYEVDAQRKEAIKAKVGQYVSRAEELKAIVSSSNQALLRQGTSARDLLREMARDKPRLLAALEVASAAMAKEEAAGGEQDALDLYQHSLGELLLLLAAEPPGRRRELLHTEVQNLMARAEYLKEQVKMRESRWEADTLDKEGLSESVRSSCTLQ

[4] = target: kinases (KINOMEscan panel) (Homo sapiens, UniProt P22455); settings: NEW KINOMEscan
[5] = target: kinases (KINOMEscan panel) (Homo sapiens, UniProt P42336, H1047L); settings: NEW KINOMEscan
[6] = target: kinases (KINOMEscan panel) (Homo sapiens, UniProt Q9HAZ1); settings: kinase CLK4; NEW KINOMEscan
[7] = target: kinases (KINOMEscan panel) (Homo sapiens, UniProt P51617); settings: kinase IRAK1; NEW KINOMEscan
[8] = target: kinases (KINOMEscan panel) (Homo sapiens, UniProt O60674); settings: JAK2(JH1domain-catalytic); NEW KINOMEscan
[9] = target: kinases (KINOMEscan panel) (Homo sapiens, UniProt O15264)
[10] = tested on: kinases (KINOMEscan panel); settings: NEW KINOMEscan; for KINOMEscan EGFR(L747-E749del, A750P): kinase EGFR(L747-E749del, A750P); for KINOMEscan EGFR(L747-T751del,Sins): kinase EGFR(L747-T751del,Sins); for KINOMEscan FLT3(ITD): kinase FLT3(ITD)
[11] = target: T2, kinases (KINOMEscan panel) (Homo sapiens, UniProt Q9UKI8); settings: kinase TLK1; NEW KINOMEscan
T2 sequence (Q9UKI8 1-766): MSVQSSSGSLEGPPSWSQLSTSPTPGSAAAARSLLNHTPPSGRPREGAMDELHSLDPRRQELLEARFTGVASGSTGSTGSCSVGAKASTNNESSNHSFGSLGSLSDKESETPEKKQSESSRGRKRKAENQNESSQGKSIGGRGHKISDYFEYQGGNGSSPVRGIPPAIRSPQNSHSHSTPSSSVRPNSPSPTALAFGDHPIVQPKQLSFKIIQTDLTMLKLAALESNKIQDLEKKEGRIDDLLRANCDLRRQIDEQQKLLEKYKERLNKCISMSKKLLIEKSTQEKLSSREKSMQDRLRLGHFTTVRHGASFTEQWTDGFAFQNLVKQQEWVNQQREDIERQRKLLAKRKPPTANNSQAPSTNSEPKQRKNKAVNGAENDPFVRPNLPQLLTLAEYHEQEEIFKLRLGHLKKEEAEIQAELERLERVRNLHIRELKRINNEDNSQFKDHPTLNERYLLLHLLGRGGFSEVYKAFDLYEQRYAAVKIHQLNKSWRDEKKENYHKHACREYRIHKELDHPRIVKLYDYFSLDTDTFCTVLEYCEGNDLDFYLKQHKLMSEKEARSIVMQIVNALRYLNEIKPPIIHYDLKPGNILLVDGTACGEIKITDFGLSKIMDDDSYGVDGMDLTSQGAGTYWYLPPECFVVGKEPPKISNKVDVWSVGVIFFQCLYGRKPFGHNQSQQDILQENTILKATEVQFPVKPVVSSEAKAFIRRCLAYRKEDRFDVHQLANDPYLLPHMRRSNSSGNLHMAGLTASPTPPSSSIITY

[12] = target: kinases (KINOMEscan panel) (Homo sapiens, UniProt P21127); settings: CDK11B; NEW KINOMEscan
[13] = target: kinases (KINOMEscan panel) (Homo sapiens, UniProt P07949, M918T); settings: NEW KINOMEscan
[14] = target: kinases (KINOMEscan panel) (Homo sapiens, UniProt P80192); settings: NEW KINOMEscan
[15] = target: kinases (KINOMEscan panel) (Homo sapiens, UniProt O75716); settings: kinase STK16; NEW KINOMEscan
[16] = target: kinases (KINOMEscan panel) (Homo sapiens, UniProt P00533, G719S); settings: EGFR(G719S); NEW KINOMEscan
[17] = target: kinases (KINOMEscan panel) (Homo sapiens, UniProt Q9UPE1); settings: SRPK3; NEW KINOMEscan
[18] = target: kinases (KINOMEscan panel) (Homo sapiens, UniProt P42336, C420R); settings: PIK3CA(C420R); NEW KINOMEscan
[19] = target: kinases (KINOMEscan panel) (Homo sapiens, UniProt Q9UM73, L1196M); settings: kinase ALK(L1196M); NEW KINOMEscan
[20] = target: kinases (KINOMEscan panel) (Homo sapiens, UniProt P37023); settings: ACVRL1; NEW KINOMEscan

Sequence of kinases (KINOMEscan panel) (Homo sapiens, UniProt O75716) (O75716 whole entry): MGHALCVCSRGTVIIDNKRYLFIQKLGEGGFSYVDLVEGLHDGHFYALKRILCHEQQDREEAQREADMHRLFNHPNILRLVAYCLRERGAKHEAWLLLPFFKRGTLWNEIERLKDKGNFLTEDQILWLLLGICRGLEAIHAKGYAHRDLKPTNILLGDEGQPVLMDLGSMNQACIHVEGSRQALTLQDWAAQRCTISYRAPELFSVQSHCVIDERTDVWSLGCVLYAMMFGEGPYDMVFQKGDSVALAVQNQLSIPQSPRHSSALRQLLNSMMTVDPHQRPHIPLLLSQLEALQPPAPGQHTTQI
Sequence of kinases (KINOMEscan panel) (Homo sapiens, UniProt Q9HAZ1) (Q9HAZ1 whole entry): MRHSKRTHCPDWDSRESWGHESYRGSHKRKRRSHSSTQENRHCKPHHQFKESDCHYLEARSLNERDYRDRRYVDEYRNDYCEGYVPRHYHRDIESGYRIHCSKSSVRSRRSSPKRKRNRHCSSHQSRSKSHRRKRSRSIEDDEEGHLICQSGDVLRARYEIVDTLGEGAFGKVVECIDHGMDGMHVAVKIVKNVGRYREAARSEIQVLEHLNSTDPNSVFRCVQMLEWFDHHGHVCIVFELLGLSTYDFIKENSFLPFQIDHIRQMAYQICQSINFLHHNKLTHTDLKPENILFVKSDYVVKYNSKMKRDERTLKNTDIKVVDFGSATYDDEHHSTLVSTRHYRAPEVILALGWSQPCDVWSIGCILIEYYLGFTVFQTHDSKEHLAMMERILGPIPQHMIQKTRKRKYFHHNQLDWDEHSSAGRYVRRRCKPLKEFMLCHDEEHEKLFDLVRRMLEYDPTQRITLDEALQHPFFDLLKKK
Sequence of kinases (KINOMEscan panel) (Homo sapiens, UniProt Q9Y3S1) (Q9Y3S1 whole entry): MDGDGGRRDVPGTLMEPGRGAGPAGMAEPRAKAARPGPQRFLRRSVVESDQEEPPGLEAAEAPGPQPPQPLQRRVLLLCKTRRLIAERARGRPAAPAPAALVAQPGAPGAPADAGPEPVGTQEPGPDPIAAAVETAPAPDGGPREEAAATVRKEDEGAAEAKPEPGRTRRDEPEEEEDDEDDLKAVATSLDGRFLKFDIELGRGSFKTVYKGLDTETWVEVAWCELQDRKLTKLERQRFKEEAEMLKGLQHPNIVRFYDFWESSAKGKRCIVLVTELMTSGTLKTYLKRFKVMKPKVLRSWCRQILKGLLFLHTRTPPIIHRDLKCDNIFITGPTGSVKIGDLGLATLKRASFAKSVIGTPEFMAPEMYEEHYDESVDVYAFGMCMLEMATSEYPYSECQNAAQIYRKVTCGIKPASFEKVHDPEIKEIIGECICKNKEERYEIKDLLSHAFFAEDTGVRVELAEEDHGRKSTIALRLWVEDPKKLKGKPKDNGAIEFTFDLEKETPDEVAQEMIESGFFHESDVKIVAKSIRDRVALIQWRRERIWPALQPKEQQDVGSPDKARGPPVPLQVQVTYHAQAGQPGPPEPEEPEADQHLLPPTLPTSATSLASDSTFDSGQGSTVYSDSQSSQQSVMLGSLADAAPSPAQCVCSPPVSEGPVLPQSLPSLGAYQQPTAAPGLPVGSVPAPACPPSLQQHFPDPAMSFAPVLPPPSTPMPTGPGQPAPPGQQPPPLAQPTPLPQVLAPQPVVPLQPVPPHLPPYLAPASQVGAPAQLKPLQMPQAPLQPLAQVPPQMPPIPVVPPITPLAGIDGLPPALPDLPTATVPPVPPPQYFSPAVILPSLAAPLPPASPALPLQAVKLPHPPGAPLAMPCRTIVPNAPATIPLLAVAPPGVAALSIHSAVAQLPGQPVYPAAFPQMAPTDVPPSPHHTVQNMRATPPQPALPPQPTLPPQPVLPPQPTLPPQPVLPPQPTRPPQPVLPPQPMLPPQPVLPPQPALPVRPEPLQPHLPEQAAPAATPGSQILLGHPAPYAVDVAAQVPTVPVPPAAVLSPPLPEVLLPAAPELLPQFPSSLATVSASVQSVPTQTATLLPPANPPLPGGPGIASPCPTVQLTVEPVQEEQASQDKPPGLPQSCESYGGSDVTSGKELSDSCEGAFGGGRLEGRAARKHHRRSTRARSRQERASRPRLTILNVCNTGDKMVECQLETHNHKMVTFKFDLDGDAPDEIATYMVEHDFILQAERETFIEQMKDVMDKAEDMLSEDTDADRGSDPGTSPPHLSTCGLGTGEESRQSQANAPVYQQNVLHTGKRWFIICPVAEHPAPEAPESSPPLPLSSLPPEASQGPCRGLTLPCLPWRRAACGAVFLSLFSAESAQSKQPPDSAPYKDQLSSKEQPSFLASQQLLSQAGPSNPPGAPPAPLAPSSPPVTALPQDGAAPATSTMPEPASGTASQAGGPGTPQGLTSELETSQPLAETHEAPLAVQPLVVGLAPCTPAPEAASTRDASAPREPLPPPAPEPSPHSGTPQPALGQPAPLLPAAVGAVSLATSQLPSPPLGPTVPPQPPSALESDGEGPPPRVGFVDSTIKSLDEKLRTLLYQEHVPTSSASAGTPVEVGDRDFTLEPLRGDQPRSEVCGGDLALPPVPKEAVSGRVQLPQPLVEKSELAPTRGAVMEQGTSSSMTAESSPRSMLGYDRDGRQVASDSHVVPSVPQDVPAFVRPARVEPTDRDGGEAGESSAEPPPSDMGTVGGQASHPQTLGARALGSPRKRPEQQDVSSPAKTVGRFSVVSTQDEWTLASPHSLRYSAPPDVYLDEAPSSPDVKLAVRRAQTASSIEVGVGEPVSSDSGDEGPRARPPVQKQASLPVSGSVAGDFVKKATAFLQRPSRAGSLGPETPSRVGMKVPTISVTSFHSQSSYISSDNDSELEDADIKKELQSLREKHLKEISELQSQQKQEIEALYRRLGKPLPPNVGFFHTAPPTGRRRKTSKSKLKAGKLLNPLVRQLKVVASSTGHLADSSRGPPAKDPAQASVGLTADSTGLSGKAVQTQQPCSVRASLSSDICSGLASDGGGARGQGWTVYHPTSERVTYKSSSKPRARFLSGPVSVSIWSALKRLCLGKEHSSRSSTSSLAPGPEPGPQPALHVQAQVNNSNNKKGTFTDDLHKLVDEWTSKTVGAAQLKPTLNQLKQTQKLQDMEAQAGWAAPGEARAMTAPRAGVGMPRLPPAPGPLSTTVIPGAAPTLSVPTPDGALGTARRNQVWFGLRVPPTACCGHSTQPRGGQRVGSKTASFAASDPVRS
Sequence of kinases (KINOMEscan panel) (Homo sapiens, UniProt P07949, M918T) (P07949 29-1114 M918T): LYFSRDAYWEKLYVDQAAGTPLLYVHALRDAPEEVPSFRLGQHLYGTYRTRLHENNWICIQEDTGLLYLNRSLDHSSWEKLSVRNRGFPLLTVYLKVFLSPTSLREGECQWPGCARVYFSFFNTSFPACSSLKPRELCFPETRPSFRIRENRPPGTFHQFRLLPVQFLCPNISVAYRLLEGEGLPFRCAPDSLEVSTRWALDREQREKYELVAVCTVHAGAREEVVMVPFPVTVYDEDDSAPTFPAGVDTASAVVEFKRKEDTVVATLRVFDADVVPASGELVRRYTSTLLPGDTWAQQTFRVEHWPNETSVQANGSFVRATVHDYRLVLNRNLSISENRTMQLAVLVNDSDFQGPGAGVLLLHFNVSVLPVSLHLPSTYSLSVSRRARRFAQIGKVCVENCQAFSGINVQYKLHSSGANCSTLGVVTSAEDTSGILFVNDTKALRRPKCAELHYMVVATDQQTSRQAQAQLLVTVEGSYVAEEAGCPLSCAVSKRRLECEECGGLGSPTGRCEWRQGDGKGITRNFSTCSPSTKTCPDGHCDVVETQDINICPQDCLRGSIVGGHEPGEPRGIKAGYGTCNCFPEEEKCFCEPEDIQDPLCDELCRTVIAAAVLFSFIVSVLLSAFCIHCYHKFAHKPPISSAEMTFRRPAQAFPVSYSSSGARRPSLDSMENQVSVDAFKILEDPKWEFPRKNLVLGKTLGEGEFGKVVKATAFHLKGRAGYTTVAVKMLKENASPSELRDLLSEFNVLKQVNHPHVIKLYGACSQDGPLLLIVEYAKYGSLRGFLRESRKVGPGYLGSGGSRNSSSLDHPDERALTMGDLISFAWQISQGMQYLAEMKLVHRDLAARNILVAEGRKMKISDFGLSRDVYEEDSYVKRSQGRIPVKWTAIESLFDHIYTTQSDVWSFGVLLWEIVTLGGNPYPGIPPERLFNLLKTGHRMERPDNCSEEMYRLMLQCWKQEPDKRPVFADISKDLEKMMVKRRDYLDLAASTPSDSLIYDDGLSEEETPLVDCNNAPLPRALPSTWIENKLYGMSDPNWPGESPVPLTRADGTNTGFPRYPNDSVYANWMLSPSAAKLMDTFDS
Sequence of kinases (KINOMEscan panel) (Homo sapiens, UniProt P21127) (P21127 whole entry): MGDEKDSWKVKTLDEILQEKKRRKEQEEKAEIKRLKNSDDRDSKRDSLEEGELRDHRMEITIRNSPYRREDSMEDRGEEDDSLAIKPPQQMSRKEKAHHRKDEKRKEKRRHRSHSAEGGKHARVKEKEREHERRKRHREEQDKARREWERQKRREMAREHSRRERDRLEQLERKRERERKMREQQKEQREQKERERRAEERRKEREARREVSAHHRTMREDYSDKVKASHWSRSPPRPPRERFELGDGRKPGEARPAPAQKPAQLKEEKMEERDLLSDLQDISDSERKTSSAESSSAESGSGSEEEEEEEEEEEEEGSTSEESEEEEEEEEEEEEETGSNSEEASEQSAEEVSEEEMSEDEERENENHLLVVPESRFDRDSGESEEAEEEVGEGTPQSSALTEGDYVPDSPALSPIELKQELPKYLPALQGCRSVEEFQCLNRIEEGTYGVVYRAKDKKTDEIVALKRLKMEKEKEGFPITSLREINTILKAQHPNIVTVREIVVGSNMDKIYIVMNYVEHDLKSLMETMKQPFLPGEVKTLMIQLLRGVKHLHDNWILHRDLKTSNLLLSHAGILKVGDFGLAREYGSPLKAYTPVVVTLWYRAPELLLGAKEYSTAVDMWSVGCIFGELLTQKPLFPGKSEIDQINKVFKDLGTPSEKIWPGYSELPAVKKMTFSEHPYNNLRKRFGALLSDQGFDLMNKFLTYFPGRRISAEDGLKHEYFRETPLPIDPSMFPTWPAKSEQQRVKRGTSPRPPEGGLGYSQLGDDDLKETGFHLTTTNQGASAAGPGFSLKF

Compound	KINOMEscan WNK2 [1]	KINOMEscan PLK2 [2]	KINOMEscan ULK3 [3]	KINOMEscan FGFR4 [4]	KINOMEscan PIK3CA(H1047L) [5]	KINOMEscan CLK4 [6]	KINOMEscan IRAK1 [7]	KINOMEscan JAK2(JH1domain-catalytic) [8]	KINOMEscan MAPK13/p38-delta [9]	KINOMEscan EGFR(L747-S752del, P753S) [10]	KINOMEscan FLT3(ITD,D835V) [10]	KINOMEscan FLT3(ITD,F691L) [10]	KINOMEscan PRKAA2 [10]	KINOMEscan EGFR(L747-E749del, A750P) [10]	KINOMEscan EGFR(L747-T751del,Sins) [10]	KINOMEscan FLT3(ITD) [10]	KINOMEscan PRKAA2 ([10]; kinase PRKAA2)	KINOMEscan TLK1 [11]	KINOMEscan CDK11B [12]	KINOMEscan RET(M918T) [13]	other results
Cc1cccc(-c2nc(Nc3ccc4nn(C)cc4c3)c3ccccc3n2)n1 [NK167]	0	0	0	16	4	22	0	0	0	0	7	33	11	0	0	0	0	0	10	0	KINOMEscan MAP3K9 [14]: 11; KINOMEscan STK16 [15]: 19; KINOMEscan EGFR(G719S) [16]: 0; KINOMEscan SRPK3 [17]: 0; KINOMEscan PIK3CA(C420R) [18]: 0; KINOMEscan ALK(L1196M) [19]: 0; KINOMEscan ACVRL1 [20]: 4
Cc1cccc(-c2nc(N(C)c3ccc4ncsc4c3)c3ccccc3n2)n1 [NK-161]	0	0	1	19	23	10	0	0	6	19	25	25	20	0	0	4	0	0	1	15	KINOMEscan MAP3K9 [14]: 27; KINOMEscan STK16 [15]: 15; KINOMEscan EGFR(G719S) [16]: 0; KINOMEscan SRPK3 [17]: 1; KINOMEscan PIK3CA(C420R) [18]: 0; KINOMEscan ALK(L1196M) [19]: 0; KINOMEscan ACVRL1 [20]: 9
